Source: the kinase profiling compilation of Christmann-Franck et al. (2016)

Assays:
Assay in all cases: radiometric filter-binding kinase assay
[1] = target: ABL1 (human) (UniProt P00519); settings: compound 100.0 µM; ATP 5 µM
[2] = tested on: AKT2 (human), P31751 [S474D]; settings: compound 100.0 µM; ATP 50 µM
[3] = target: AURKB (human) (UniProt Q96GD4); settings: compound 100.0 µM; ATP 20 µM
[4] = target: CAMKK2 (human) (UniProt Q96RR4); settings: compound 100.0 µM; ATP 20 µM
[5] = target: CDK2 CCNA2 (human) (UniProt P20248+P24941); settings: compound 100.0 µM; ATP 20 µM
[6] = target: CSK (human) (UniProt P41240); settings: compound 100.0 µM; ATP 20 µM
[7] = target: CaMK1 (human) (UniProt Q14012); settings: compound 100.0 µM; ATP 50 µM
Sequence of CaMK1 (human) (Q14012 whole entry, looked up): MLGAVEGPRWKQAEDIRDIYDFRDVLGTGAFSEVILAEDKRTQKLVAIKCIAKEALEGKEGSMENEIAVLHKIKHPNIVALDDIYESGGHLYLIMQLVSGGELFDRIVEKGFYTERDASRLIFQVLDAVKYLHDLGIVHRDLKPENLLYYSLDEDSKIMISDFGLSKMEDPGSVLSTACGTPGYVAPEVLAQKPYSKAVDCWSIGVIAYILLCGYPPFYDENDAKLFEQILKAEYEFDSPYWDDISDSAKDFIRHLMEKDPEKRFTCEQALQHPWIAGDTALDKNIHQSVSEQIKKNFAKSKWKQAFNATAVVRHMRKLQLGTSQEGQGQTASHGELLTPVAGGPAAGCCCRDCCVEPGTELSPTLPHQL

[8] = target: DYRK1A (human) (UniProt Q13627); settings: compound 100.0 µM; ATP 50 µM
[9] = target: DYRK2 (human) (UniProt Q92630); settings: compound 100.0 µM; ATP 50 µM
[10] = target: EPHB2 (human) (UniProt P29323); settings: compound 100.0 µM; ATP 20 µM
[11] = target: EPHB3 (human) (UniProt P54753); settings: compound 100.0 µM; ATP 20 µM
[12] = target: FLT1 (human) (UniProt P17948); settings: compound 100.0 µM; ATP 20 µM
[13] = tested on: LCK (mouse); settings: compound 100.0 µM; ATP 50 µM; accession and sequence are those of the human protein
[14] = target: MAP2K1 (human) (UniProt Q02750); settings: compound 100.0 µM; ATP 5 µM
Sequence of MAP2K1 (human) (Q02750 whole entry, looked up): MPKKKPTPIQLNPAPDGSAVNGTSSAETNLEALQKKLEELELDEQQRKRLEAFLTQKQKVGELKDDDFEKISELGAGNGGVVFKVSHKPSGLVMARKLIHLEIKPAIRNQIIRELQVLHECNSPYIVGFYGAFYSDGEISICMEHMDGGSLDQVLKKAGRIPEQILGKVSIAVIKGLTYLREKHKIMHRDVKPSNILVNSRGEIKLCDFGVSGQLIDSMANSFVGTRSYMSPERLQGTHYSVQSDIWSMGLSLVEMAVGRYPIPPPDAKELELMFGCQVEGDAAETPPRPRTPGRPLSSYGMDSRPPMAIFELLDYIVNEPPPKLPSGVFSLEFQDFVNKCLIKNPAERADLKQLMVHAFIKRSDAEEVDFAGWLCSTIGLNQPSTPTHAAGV

[15] = target: MAP2K2 (human) (UniProt P36507); settings: compound 100.0 µM; ATP 5 µM
[16] = target: MAP3K5 (human) (UniProt Q99683); settings: compound 100.0 µM; ATP 50 µM
[17] = target: MAPKAPK2 (human) (UniProt P49137); settings: compound 100.0 µM; ATP 20 µM
Sequence of MAPKAPK2 (human) (P49137 whole entry, looked up): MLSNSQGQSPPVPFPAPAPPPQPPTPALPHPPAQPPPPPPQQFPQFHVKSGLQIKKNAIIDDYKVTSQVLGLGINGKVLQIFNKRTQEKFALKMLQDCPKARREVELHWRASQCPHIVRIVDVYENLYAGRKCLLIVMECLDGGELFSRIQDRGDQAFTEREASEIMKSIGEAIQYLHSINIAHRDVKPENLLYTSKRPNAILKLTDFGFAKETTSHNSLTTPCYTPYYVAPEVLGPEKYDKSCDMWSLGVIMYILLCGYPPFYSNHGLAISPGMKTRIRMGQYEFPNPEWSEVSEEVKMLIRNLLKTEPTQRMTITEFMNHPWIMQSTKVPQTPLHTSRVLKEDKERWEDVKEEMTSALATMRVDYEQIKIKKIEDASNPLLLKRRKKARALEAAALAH

[18] = target: MARK1 (human) (UniProt Q9P0L2); settings: compound 100.0 µM; ATP 20 µM
[19] = target: MARK2 (human) (UniProt Q7KZI7); settings: compound 100.0 µM; ATP 20 µM
[20] = target: MARK3 (human) (UniProt P27448); settings: compound 100.0 µM; ATP 5 µM
[21] = target: MARK4 (human) (UniProt Q96L34); settings: compound 100.0 µM; ATP 50 µM
[22] = target: MKNK1 (human) (UniProt Q9BUB5); settings: compound 100.0 µM; ATP 50 µM
[23] = target: MKNK2 (human) (UniProt Q9HBH9); settings: compound 100.0 µM; ATP 50 µM
Sequence of MKNK2 (human) (Q9HBH9 whole entry, looked up): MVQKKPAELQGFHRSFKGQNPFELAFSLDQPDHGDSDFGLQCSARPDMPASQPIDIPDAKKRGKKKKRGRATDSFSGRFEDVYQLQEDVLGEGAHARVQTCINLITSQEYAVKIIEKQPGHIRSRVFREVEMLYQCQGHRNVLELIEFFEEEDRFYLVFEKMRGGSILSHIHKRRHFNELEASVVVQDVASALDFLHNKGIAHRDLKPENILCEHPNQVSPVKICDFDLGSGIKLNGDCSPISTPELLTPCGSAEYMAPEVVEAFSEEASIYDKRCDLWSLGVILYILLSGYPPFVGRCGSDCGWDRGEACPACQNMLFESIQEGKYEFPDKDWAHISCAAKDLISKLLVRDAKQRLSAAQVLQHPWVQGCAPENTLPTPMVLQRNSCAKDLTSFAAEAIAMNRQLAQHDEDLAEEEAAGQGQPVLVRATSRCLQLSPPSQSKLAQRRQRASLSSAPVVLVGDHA

[24] = target: MST4 (human) (UniProt Q9P289); settings: compound 100.0 µM; ATP 20 µM
[25] = target: NEK2 (human) (UniProt P51955); settings: compound 100.0 µM; ATP 50 µM
Sequence of NEK2 (human) (P51955 whole entry, looked up): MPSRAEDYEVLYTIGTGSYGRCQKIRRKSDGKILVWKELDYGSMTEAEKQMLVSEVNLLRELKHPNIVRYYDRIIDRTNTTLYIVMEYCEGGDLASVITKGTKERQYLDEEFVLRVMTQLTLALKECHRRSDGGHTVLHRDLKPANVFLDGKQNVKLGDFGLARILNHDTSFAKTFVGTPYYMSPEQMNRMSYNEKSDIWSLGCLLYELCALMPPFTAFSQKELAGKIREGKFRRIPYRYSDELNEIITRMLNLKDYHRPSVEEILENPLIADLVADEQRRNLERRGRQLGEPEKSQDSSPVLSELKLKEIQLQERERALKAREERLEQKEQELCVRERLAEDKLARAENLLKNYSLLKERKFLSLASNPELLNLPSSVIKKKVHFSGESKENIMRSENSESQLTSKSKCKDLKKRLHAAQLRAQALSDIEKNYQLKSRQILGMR

[26] = target: PHKG1 (human) (UniProt Q16816); settings: compound 100.0 µM; ATP 50 µM
[27] = target: PIM1 (human) (UniProt P11309); settings: compound 100.0 µM; ATP 20 µM
Sequence of PIM1 (human) (P11309 whole entry, looked up): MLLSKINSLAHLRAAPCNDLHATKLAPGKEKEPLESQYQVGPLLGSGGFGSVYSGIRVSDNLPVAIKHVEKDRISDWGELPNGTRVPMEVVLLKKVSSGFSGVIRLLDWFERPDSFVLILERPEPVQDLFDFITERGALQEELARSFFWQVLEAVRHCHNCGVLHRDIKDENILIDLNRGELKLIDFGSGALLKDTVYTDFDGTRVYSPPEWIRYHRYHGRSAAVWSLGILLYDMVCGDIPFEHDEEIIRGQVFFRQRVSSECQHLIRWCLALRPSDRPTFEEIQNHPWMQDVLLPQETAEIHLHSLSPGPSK

[28] = target: PIM3 (human) (UniProt Q86V86); settings: compound 100.0 µM; ATP 20 µM
[29] = target: PKN2 (human) (UniProt Q16513); settings: compound 100.0 µM; ATP 5 µM
[30] = target: PTK6 (human) (UniProt Q13882); settings: compound 100.0 µM; ATP 20 µM
Sequence of PTK6 (human) (Q13882 whole entry, looked up): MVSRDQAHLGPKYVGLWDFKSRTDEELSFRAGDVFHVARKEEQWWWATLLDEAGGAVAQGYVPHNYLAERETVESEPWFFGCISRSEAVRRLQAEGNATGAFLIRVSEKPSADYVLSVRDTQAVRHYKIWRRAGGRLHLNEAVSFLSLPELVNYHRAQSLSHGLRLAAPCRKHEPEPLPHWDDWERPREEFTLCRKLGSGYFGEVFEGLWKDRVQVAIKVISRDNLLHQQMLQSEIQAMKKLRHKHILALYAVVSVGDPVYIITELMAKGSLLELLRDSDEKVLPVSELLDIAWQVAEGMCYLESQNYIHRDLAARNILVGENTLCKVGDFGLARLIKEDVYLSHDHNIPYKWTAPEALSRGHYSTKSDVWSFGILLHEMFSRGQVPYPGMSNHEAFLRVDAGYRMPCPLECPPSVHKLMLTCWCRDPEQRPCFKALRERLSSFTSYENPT

[31] = tested on: ROCK2 (rat); settings: compound 100.0 µM; ATP 20 µM; accession and sequence are those of the human protein
[32] = target: RPS6KA1 KD1 KD2 (human) (UniProt Q15418); settings: compound 100.0 µM; ATP 50 µM
[33] = target: SRPK1 (human) (UniProt Q96SB4); settings: compound 100.0 µM; ATP 50 µM
[34] = target: STK3 (human) (UniProt Q13188); settings: compound 100.0 µM; ATP 20 µM
[35] = target: STK33 (human) (UniProt Q9BYT3); settings: compound 100.0 µM; ATP 50 µM
[36] = target: SYK (human) (UniProt P43405); settings: compound 100.0 µM; ATP 20 µM
[37] = target: TEK (human) (UniProt Q02763); settings: compound 100.0 µM; ATP 20 µM
[38] = target: TTK (human) (UniProt P33981); settings: compound 100.0 µM; ATP 20 µM
[39] = target: ZAP70 (human) (UniProt P43403); settings: compound 100.0 µM; ATP 5 µM

Sequence of AURKB (human) (Q96GD4 whole entry, looked up): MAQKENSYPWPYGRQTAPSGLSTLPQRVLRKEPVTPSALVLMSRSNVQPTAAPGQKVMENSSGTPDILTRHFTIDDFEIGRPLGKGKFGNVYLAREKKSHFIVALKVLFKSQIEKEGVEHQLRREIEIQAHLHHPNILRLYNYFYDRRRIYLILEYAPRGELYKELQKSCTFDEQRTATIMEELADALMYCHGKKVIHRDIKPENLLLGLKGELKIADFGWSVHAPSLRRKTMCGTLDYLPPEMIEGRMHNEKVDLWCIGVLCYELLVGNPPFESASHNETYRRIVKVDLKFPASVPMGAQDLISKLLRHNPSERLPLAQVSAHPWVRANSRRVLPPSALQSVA
Sequence of ABL1 (human) (P00519 whole entry, looked up): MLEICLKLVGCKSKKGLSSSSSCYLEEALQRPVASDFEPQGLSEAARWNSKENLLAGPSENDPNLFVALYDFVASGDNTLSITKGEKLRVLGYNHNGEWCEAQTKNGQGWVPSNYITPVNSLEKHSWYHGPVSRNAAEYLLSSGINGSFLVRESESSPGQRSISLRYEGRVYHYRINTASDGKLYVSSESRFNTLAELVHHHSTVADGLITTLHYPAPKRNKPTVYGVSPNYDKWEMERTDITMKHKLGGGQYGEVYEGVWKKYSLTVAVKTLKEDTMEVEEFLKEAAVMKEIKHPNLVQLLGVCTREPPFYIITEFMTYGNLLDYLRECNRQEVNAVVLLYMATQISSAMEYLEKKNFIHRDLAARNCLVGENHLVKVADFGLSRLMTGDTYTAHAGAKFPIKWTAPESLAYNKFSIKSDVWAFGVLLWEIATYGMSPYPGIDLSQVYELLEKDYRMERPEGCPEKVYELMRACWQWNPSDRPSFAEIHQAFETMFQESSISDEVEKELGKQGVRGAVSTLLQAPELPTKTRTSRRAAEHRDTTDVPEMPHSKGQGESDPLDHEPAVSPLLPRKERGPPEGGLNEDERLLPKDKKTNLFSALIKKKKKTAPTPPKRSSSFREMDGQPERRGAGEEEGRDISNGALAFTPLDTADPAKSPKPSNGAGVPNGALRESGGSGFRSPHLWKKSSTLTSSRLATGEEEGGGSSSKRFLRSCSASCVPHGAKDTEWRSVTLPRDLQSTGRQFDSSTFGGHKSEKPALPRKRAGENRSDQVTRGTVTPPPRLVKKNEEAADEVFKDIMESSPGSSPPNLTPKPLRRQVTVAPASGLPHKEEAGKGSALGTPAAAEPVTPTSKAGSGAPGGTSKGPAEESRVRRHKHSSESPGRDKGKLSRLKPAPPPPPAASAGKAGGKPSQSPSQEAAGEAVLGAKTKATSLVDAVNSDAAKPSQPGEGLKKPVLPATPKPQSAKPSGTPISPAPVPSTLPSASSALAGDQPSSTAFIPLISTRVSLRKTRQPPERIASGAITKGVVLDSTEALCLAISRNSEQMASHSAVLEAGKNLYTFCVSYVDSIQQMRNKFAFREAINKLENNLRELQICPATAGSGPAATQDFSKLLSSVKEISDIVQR

| Compound | inhibition [1] | inhibition [2] | inhibition [3] | inhibition [4] | inhibition [5] | inhibition [6] | inhibition [7] | inhibition [8] | inhibition [9] | inhibition [10] | inhibition [11] | inhibition [12] | inhibition [13] | inhibition [14] | inhibition [15] | inhibition [16] | inhibition [17] | inhibition [18] | inhibition [19] | inhibition [20] | also measured |
| --- | --- | --- | --- | --- | --- | --- | --- | --- | --- | --- | --- | --- | --- | --- | --- | --- | --- | --- | --- | --- | --- |
| CC(C)(C)Nc1c(COCc2ccccc2)nc2[nH]cnn12 | 11% | 39% | 12% | 28% | 14% | 0% | 83% | 30% | 6% | 1% | 90% | 0% | 5% | 0% | 11% | 2% | 2% | 0% | 13% | 13% | inhibition [21]: 22%; inhibition [22]: 0%; inhibition [23]: 0%; inhibition [24]: 0%; inhibition [25]: 6%; inhibition [26]: 10%; inhibition [27]: 30%; inhibition [28]: 18%; inhibition [29]: 16%; inhibition [30]: 21%; inhibition [31]: 0%; inhibition [32]: 3%; inhibition [33]: 3%; inhibition [34]: 0%; inhibition [35]: 0%; inhibition [36]: 12%; inhibition [37]: 0%; inhibition [38]: 7%; inhibition [39]: 0% |
| CC1CN(c2nc3ccccn3c(=O)c2N)CC(C)O1 (stereo not given) | 2% | 24% | 32% | 0% | 8% | 0% | 35% | 36% | 40% | 20% | 0% | 54% | 2% | 7% | 0% | 4% | 0% | 26% | 13% | 25% | inhibition [21]: 56%; inhibition [22]: 0%; inhibition [23]: 0%; inhibition [24]: 2%; inhibition [25]: 0%; inhibition [26]: 3%; inhibition [27]: 7%; inhibition [28]: 1%; inhibition [29]: 0%; inhibition [30]: 21%; inhibition [31]: 17%; inhibition [32]: 0%; inhibition [33]: 74%; inhibition [34]: 0%; inhibition [35]: 8%; inhibition [36]: 13%; inhibition [37]: 5%; inhibition [38]: 3%; inhibition [39]: 38% |
| O=C(Nc1cnc2[nH]cnn2c1=O)c1ccccc1 | 3% | 15% | 0% | 0% | 0% | 8% | 6% | 0% | 27% | 6% | 0% | 0% | 18% | 20% | 0% | 9% | 17% | 0% | 0% | 5% | inhibition [21]: 0%; inhibition [22]: 0%; inhibition [23]: 10%; inhibition [24]: 0%; inhibition [25]: 0%; inhibition [26]: 28%; inhibition [27]: 0%; inhibition [28]: 0%; inhibition [29]: 0%; inhibition [30]: 19%; inhibition [31]: 0%; inhibition [32]: 15%; inhibition [33]: 0%; inhibition [34]: 0%; inhibition [35]: 0%; inhibition [36]: 0%; inhibition [37]: 0%; inhibition [38]: 0%; inhibition [39]: 0% |
| O=C(c1cccc(-c2cc3c(=O)[nH]cnc3s2)c1)N1CCOCC1 | 15% | 47% | 6% | 0% | 10% | 10% | 75% | 52% | 53% | 27% | 6% | 74% | 40% | 31% | 8% | 54% | 15% | 31% | 0% | 29% | inhibition [21]: 0%; inhibition [22]: 0%; inhibition [23]: 30%; inhibition [24]: 12%; inhibition [25]: 2%; inhibition [26]: 9%; inhibition [27]: 61%; inhibition [28]: 51%; inhibition [29]: 0%; inhibition [30]: 50%; inhibition [31]: 39%; inhibition [32]: 47%; inhibition [33]: 19%; inhibition [34]: 27%; inhibition [35]: 0%; inhibition [36]: 0%; inhibition [37]: 0%; inhibition [38]: 0%; inhibition [39]: 0% |
| Nc1cnc2c(-c3c(F)cccc3F)cccn2c1=O | 40% | 68% | 81% | 0% | 88% | 11% | 60% | 55% | 20% | 29% | 42% | 72% | 39% | 72% | 71% | 86% | 20% | 49% | 53% | 86% | inhibition [21]: 62%; inhibition [22]: 1%; inhibition [23]: 6%; inhibition [24]: 77%; inhibition [25]: 0%; inhibition [26]: 38%; inhibition [27]: 31%; inhibition [28]: 35%; inhibition [29]: 73%; inhibition [30]: 67%; inhibition [31]: 76%; inhibition [32]: 21%; inhibition [33]: 58%; inhibition [34]: 64%; inhibition [35]: 4%; inhibition [36]: 30%; inhibition [37]: 42%; inhibition [38]: 45%; inhibition [39]: 1% |
